Experimental data published in US20160194358A1, “LINEAR PEPTIDE ANTIBIOTCS” (priority 2013, published 2016).
In brackets after ≈: the same amount, converted by molar mass. Where two headings read alike, the source gives them in different places. *1 amine or outer side, *2 acyl side, *3 side chain or, on linkers, in order; H or OH if unused. Where a SMILES comes first, the peptide text is derived from it. [ ]: non-standard residue; d: D form. The star is where a group is joined. boroAla((+)-pinanediol) = C[C@H](N*)B1O[C@@H]2C[C@@H]3C[C@@H](C3(C)C)[C@]2(C)O1; Benzoyl(4-(4-Cl-Ph)) = O=C(c1ccc(-c2ccc(Cl)cc2)cc1)*; X27 = CCCCCCCCN1CCN([*:1])C(C(=O)[*:2])C1; X32 = CCCCCCN1CCN([*:1])C(C(=O)[*:2])C1; X30 = CCCCc1ccc(-c2ncc(C(=O)*)cn2)cc1; X25 = C[C@H](N*)C(=O)c1ncc(C#N)o1; X26 = CCCCCCCCc1ccc(C(=O)*)c(C)c1; Myristoyl = CCCCCCCCCCCCCC(=O)*; X23 = O=C(c1ccc(C#CC#CCCO)cc1)*; X28 = C[C@H](N*)C(=O)c1ncccn1; Dab = NCC[C@H](N)C(=O)O; Dap = NC[C@H](N)C(=O)O

Columns and labels:
[1] = test system: Escherichia coli strain MC4100 IMP-4213, which harbors an LptD mutation; details: E. coli MC4100 IMP-4213, 35° C., 22 hours
Protocol: (§1) In vitro antimicrobial activity of each compound was determined by measuring minimal inhibitor concentrations (MICs) using the broth micro-dilution technique as approved by the Clinical and Laboratory Standards Institute (CLSI). Antibacterial activity was measure against two strains of bacteria: 1) methicillin resistant Staphylococcus aureus (MRSA) strain USA300 (NRS384) and 2) Escherichia coli strain MC4100 IMP-4213, which harbors an LptD mutation. Bacterial inocula were prepared by scraping cells into 1 mL of testing media (cation adjusted Mueller Hinton Broth supplemented with 0.002% v/v Tween-80) and diluting to a final OD600nm of 0.01.
(§2) Test compounds were prepared in DMSO at a concentration of 10 mg/ml. These compound stocks were diluted into testing media at a concentration of 64 μg/ml and 9 serial 1:2 dilutions were made in the same media, in 96-well U bottom microtiter dishes. Bacterial inocula were added to the two fold serial dilutions of test compounds to a final density of OD OD600nm of 0.0005 and incubated stationarily at 35° C. for 22 hours, after which the plates were examined visually.

[2] = test system: methicillin resistant Staphylococcus aureus (MRSA) strain USA300 (NRS384)
Protocol: as §1, §2

E. coli SPase = biological target: T1, E. coli SPase (Escherichia coli, UniProt P00803); assay: Biochemical SPase activity assay, fluorogenic peptide substrate, E. coli enzyme; details: 20 μM substrate, 10 minutes preincubation, read-out: IC 50 (nM) E. coli
T1 construct: Full length His-tagged E. coli SPase proteins; His; made in house; host or cells: E. coli BL21(DE3)
T1 sequence (P00803 whole entry): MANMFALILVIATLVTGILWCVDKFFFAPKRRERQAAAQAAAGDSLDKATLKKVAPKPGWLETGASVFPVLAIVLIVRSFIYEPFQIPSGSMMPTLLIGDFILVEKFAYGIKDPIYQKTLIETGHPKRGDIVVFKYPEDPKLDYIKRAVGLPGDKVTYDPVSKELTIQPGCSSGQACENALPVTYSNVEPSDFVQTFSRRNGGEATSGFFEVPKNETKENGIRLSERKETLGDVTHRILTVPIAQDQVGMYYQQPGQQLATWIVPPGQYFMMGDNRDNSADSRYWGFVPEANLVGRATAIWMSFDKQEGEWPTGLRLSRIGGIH
Protocol: Full length His-tagged E. coli SPase proteins were expressed in E. coli BL21(DE3) containing the plasmid pET23-lepB. Briefly, saturated overnight cultures grown in 20 ml of Luria-Bertani medium supplemented with ampicillin were subcultures into 1.5 L of Luria-Bertani, and shaken at 37° C. until an optical density at 600 nm of 0.4-0.5 was achieved.
(§3) Signal peptidase enzyme activity of the above proteins was measured using two fluorogenic peptide substrates (decanoyl-LSSPAYNO2A ? ADKabzPD and decanoyl-LTPTAYNO2A ? ASKKabzDD), where abz is the fluorescence donor 2-aminobenzamide, YNO2 is the fluorescence acceptor 3-nitrotyrosine, and the cleavage site is indicated with an arrow. Enzyme mix solution was prepared by diluting 2.5 nM of Escherichia coli or Staphylococcus aureus SPase protein into reaction buffers consisting of 20 mM PO4 pH 7.4, 100 mM NaCl, and 1% Elugent™ or octyl phenoxypolyethoxylethanol detergent at a concentration of 0.25% or 0.0625%. Reactions were initiated by the addition of substrate to a final concentration of 20 μM. Reaction progress was monitored by measuring the increase in fluorescence signal (excitation at 314 nm, emission at 416 nm) using a SpectraMax M2 fluorescence microplate reader. To determine IC50 values of test compounds, compound stock solutions were prepared in DMSO at a concentration of 1 mM. Three-folder serial dilutions of test compounds, starting at 10 μM, were prepared in enzyme mix solution and incubated at room temperature for 10 minutes. Following this incubation, fluorogenic substrate was added to a final concentration of 20 μM and the increase in fluorescence, corresponding to substrate cleavage, was monitored continuously at room temperature for 1 hour. Initial reaction rates were calculated based on the rate of increase in fluorescence during the reaction. Reaction rates were plotted as a function of compound concentration, and IC50 values are determined nonlinear regression analysis (SoftMaxPro 5.4, Molecular Devices™) of the sigmoidal dose-response curve.

S. aureus SPase = S. aureus SPase (Staphylococcus aureus, UniProt P0A070); assay: biochemical; details: IC 50 (nM) S. aureus, 20 μM substrate, 10 minutes preincubation
Chain of S. aureus SPase (P0A070 whole entry): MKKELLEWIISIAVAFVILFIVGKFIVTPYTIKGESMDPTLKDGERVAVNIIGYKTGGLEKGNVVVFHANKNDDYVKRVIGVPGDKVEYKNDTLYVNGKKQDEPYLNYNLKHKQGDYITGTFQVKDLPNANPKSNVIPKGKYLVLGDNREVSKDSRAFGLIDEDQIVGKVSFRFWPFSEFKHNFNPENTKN
Protocol: Full length His-tagged S. aureus SPase protein was expressed similarly from E. coli BL21(DE3) containing the plasmid pCDF1-SaSpsB and purified similarly to the E. coli protein with the following exceptions. SPase protein was solubilized using 300 mM NaCl, 20 mM Tris pH 8.06, 5 mM Imidazole, 10% glycerol, 1% Triton X-100, prior to purification in Ni-NTA Superflow resin and resin bound protein was washed in a similar buffer containing 1% Elugent in place of Triton X-100 prior to protein eluted in wash buffer supplemented with 300 mM imidazole. […] All protein concentrations were determined by BCA assay.
as §3

[3] = MRSA USA300 (NRS384), 35° C., 22 hours

Row | SMILES | MIC (μg/mL) E. coli [1] | MIC (μg/mL) S. aureus [2, 3] | also measured
1 | CCCCc1ccc(-c2ccc(C(=O)N[C@@H](CCN)C(=O)N[C@H](C(=O)N[C@@H](C)C(=O)N[C@@H](CCCCN)C(=O)N[C@@H](C)C(=O)C3CO3)[C@@H](C)O)cc2)cc1 (single isomer, unassigned) [Compound 201 P1] |  |  | MIC (μg/mL) E. coli ([1]; listed as 201 P1): 1 µg/mL (≈ 1.33 µM); MIC (μg/mL) S. aureus ([2]; MRSA USA300 (NRS384), 35° C., 22 hours, listed as 201 P1): 0.09 µg/mL (≈ 0.12 µM); IC50 (E. coli SPase): 7 nM; IC50 (S. aureus SPase): 10 nM
2 | CCCCc1ccc(-c2ccc(C(=O)N[C@@H](CCN)C(=O)N[C@H](C(=O)N[C@@H](C)C(=O)N[C@@H](CCCCN)C(=O)N[C@@H](C)C(=O)C3CO3)[C@@H](C)O)cc2)cc1 (single isomer, unassigned) [Compound 201 P2] |  |  | MIC (μg/mL) E. coli ([1]; listed as 201 P2): 5.7 µg/mL (≈ 7.58 µM); MIC (μg/mL) S. aureus ([2]; MRSA USA300 (NRS384), 35° C., 22 hours, listed as 201 P2): 2 µg/mL (≈ 2.66 µM); IC50 (E. coli SPase): 150 nM; IC50 (S. aureus SPase): 210 nM
3 | CCCCc1ccc(-c2ccc(C(=O)N[C@@H](CCN)C(=O)N[C@H](C(=O)N[C@@H](C)C(=O)N[C@@H](CCCCN)C(=O)N[C@@H](C)C(=O)C3OC3C)[C@@H](C)O)cc2)cc1 (single isomer, unassigned) [Compound 203 P1] |  |  | MIC (μg/mL) E. coli ([1]; listed as 203 P1): 11 µg/mL (≈ 14.4 µM); MIC (μg/mL) S. aureus ([2]; MRSA USA300 (NRS384), 35° C., 22 hours, listed as 203 P1): 1.2 µg/mL (≈ 1.57 µM); IC50 (E. coli SPase): 440 nM; IC50 (S. aureus SPase): 95 nM
4 | C[C@H](NC(=O)[C@H](CCCCN)NC(=O)[C@H](C)NC(=O)[C@@H](NC(=O)[C@H](CCN)NC(=O)c1ccc(C#CC#CCCO)cc1)[C@@H](C)O)B1O[C@@H]2C[C@@H]3C[C@@H](C3(C)C)[C@]2(C)O1 [Compound 265] (X23-[Dab]TAK-{boroAla((+)-pinanediol)}) | 16 µg/mL (≈ 19.5 µM) | 16 µg/mL (≈ 19.5 µM) | 
5 | C[C@H](NC(=O)[C@@H](NC(=O)[C@H](CN)NC(=O)c1ccc(-c2ccc(Cl)cc2)cc1)[C@@H](C)O)C(=O)N[C@@H](CCCCN)C(=O)N[C@@H](C)C(=O)c1ncc(C#N)o1 [Compound 266] ({Benzoyl(4-(4-Cl-Ph))}-[Dap]TAK-X25) | 16 µg/mL (≈ 20.9 µM) | 23 µg/mL (≈ 30 µM) | 
6 | C[C@H](NC(=O)[C@@H](NC(=O)[C@H](CN)NC(=O)c1ccc(-c2ccc(Cl)cc2)cc1)[C@@H](C)O)C(=O)N[C@@H](CCCCN)C(=O)N[C@@H](C)C(=O)c1ncccn1 [Compound 267] ({Benzoyl(4-(4-Cl-Ph))}-[Dap]TAK-X28) | 32 µg/mL (≈ 42.5 µM) | 11 µg/mL (≈ 14.6 µM) | 
7 | CCCCCCCCCCNCCC(=O)N[C@@H](CCCCN)C(=O)N[C@@H](C)C(=O)N[C@@H](CCCCN)C(=O)N[C@@H](C)B1O[C@@H]2C[C@@H]3C[C@@H](C3(C)C)[C@]2(C)O1 [Compound 268] | 8 µg/mL (≈ 10.5 µM) |  | MIC (μg/mL) S. aureus ([2]; USA300, 22 h): 0.5 µg/mL (≈ 0.656 µM)
8 | CCCCCCCCCCNCCC(=O)N[C@@H](CCCCN)C(=O)N[C@@H](C)C(=O)N[C@@H](CCCCN)C(=O)N[C@@H](C)B(O)O [Compound 269] | 11 µg/mL (≈ 17.5 µM) | 0.35 µg/mL (≈ 0.558 µM) | 
9 | CCCCc1ccc(-c2ncc(C(=O)N[C@@H](CCN)C(=O)N[C@H](C(=O)N[C@@H](C)C(=O)N[C@@H](CCCCN)C(=O)N[C@@H](C)B3O[C@@H]4C[C@@H]5C[C@@H](C5(C)C)[C@]4(C)O3)[C@@H](C)O)cn2)cc1 [Compound 270] (X30-[Dab]TAK-{boroAla((+)-pinanediol)}) | 0.25 µg/mL (≈ 0.29 µM) | 0.25 µg/mL (≈ 0.29 µM) | 
10 | CCCCc1ccc(-c2ncc(C(=O)N[C@@H](CCN)C(=O)N[C@@H](CCCCN)C(=O)N[C@@H](C)C(=O)N[C@@H](CCCCN)C(=O)N[C@@H](C)B3O[C@@H]4C[C@@H]5C[C@@H](C5(C)C)[C@]4(C)O3)cn2)cc1 [Compound 271] (X30-[Dab]KAK-{boroAla((+)-pinanediol)}) | 0.13 µg/mL (≈ 0.146 µM) | 0.25 µg/mL (≈ 0.281 µM) | 
11 | CCCCCCCCCCCCCC(=O)N[C@@H](CCN)C(=O)N[C@H](C(=O)N[C@@H](C)C(=O)N[C@@H](CCCCN)C(=O)N[C@@H](C)B1O[C@@H]2C[C@@H]3C[C@@H](C3(C)C)[C@]2(C)O1)[C@@H](C)O [Compound 272] (Myristoyl-[Dab]TAK-{boroAla((+)-pinanediol)}) | 0.13 µg/mL (≈ 0.156 µM) | 0.13 µg/mL (≈ 0.156 µM) | 
12 | CCCCCCCCc1ccc(C(=O)N[C@@H](CCN)C(=O)N[C@H](C(=O)N[C@@H](C)C(=O)N[C@@H](CCCCN)C(=O)N[C@@H](C)B2O[C@@H]3C[C@@H]4C[C@@H](C4(C)C)[C@]3(C)O2)[C@@H](C)O)c(C)c1 [Compound 273] (X26-[Dab]TAK-{boroAla((+)-pinanediol)}) | 0.13 µg/mL (≈ 0.152 µM) | 0.13 µg/mL (≈ 0.152 µM) | 
13 | CCCCCCCCc1ccc(C(=O)N[C@@H](CCCCN)C(=O)N[C@H](C(=O)N[C@@H](C)C(=O)N[C@@H](CCCCN)C(=O)N[C@@H](C)B2O[C@@H]3C[C@@H]4C[C@@H](C4(C)C)[C@]3(C)O2)[C@@H](C)O)c(C)c1 [Compound 274] (X26-KTAK-{boroAla((+)-pinanediol)}) | 0.5 µg/mL (≈ 0.567 µM) | 0.13 µg/mL (≈ 0.147 µM) | 
14 | CCCCc1ccc(-c2ccc(C(N[C@@H](CCCCN)C(=O)N[C@H](C(=O)N[C@@H](C)C(=O)N[C@@H](CC(C)C)C(=O)N[C@@H](C)B3O[C@@H]4C[C@@H]5C[C@@H](C5(C)C)[C@]4(C)O3)[C@@H](C)O)C(F)(F)F)cc2)cc1 (stereo partly drawn) [Compound 277] | 4 µg/mL (≈ 4.32 µM) | 1.4 µg/mL (≈ 1.51 µM) | 
15 | CCCCCCCCN1CCNC(C(=O)N[C@@H](CCCCN)C(=O)N[C@H](C(=O)N[C@@H](C)C(=O)N[C@@H](CCCCN)C(=O)N[C@@H](C)B2O[C@@H]3C[C@@H]4C[C@@H](C4(C)C)[C@]3(C)O2)[C@@H](C)O)C1 (stereo partly drawn) [Compound 279] (H-[X27]KTAK-{boroAla((+)-pinanediol)}) | >64 µg/mL | 10 µg/mL (≈ 11.4 µM) | 
16 | CCCCCCN1CCNC(C(=O)N[C@@H](CCCCN)C(=O)N[C@H](C(=O)N[C@@H](C)C(=O)N[C@@H](CCCCN)C(=O)N[C@@H](C)B2O[C@@H]3C[C@@H]4C[C@@H](C4(C)C)[C@]3(C)O2)[C@@H](C)O)C1 (stereo partly drawn) [Compound 280] (H-[X32]KTAK-{boroAla((+)-pinanediol)}) | >64 µg/mL | 64 µg/mL (≈ 75.5 µM) | 
17 | C[C@H](NC(=O)[C@H](CCCCN)NC(=O)[C@H](C)NC(=O)[C@@H](NC(=O)C(NC(=O)c1ccc(-c2ccc(Cl)cc2)cc1)C1CNC1)[C@@H](C)O)B1O[C@@H]2C[C@@H]3C[C@@H](C3(C)C)[C@]2(C)O1 (stereo partly drawn) [Compound 281] | 8 µg/mL (≈ 9.41 µM) | 4 µg/mL (≈ 4.7 µM) | 
18 | C[C@H](NC(=O)[C@H](CCCCN)NC(=O)[C@H](C)NC(=O)[C@@H](NC(=O)C(NC(=O)c1ccc(-c2ccc(Cl)cc2)cc1)C1CNC1)[C@@H](C)O)B1O[C@@H]2C[C@@H]3C[C@@H](C3(C)C)[C@]2(C)O1 (stereo partly drawn) [Compound 282] | 16 µg/mL (≈ 18.8 µM) | 8 µg/mL (≈ 9.41 µM) | 
